One data set deals with Mus musculus. In words: Antioxidant activity in western diet and CCl4-induced nonalcoholic steatohepatitis C57BL/6 mouse model assessed as increase in SOD level at 20 mg/kg, po administered for 12 weeks starting from week 8 and change in dose for every 5 days. It is filed as functional, organism-based. As to conditions: time 4.0 weeks.
In a further data set the target is Vitamin D3 receptor (Homo sapiens, UniProt P11473). The experiment in a line: Activation of VP16-fused VDR-LBD (unknown origin) incubated for 18 hrs in presence of substrate by luciferase assay.
Data set [1] deals with T1, Bile acid receptor (Mus musculus) (UniProt Q60641).
T1 sequence (whole entry): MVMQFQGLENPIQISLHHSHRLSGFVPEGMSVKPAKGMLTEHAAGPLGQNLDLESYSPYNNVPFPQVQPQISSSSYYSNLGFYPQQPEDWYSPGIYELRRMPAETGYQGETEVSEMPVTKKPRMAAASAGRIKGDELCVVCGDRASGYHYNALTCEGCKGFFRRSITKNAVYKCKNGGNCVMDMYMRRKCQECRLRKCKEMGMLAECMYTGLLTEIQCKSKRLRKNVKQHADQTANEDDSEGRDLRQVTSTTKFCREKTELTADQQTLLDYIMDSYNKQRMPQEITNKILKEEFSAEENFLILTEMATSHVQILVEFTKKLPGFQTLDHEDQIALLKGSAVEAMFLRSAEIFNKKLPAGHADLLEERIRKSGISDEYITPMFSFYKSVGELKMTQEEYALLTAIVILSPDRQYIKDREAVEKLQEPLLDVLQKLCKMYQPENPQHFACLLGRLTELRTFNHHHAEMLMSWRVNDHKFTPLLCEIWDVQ
In words: In vivo activation of FXR pathway in western diet and CCl4-induced nonalcoholic steatohepatitis C57BL/6 mouse model assessed as upregulation of FGF15 gene expression in ileum at 20 mg/kg, po administered for 12 weeks starting from week 8 and change in dose for every 5 days by RT-PCR analysis. It is filed as functional, organism-based. As to conditions: time 4.0 weeks.

Data set [2] is described as follows: Agonist activity at PPARbeta/delta (unknown origin) transfected in HepG2 cells incubated for 18 hrs by renilla/firefly based dual-glo luciferase assay. It is filed as cell-based. As to conditions: Homo sapiens, HepG2, 18 h.
Data set [3] in a line: Ratio of drug level in ileum to plasma in C57BL/6 mouse at 20 mg/kg, po administered for 5 days and measured after 1 hr post final dose by LC-MS analysis.
For data set [4], the target named is T2, Peroxisome proliferator-activated receptor gamma (Homo sapiens, UniProt P37231).
T2 sequence (P37231 whole entry): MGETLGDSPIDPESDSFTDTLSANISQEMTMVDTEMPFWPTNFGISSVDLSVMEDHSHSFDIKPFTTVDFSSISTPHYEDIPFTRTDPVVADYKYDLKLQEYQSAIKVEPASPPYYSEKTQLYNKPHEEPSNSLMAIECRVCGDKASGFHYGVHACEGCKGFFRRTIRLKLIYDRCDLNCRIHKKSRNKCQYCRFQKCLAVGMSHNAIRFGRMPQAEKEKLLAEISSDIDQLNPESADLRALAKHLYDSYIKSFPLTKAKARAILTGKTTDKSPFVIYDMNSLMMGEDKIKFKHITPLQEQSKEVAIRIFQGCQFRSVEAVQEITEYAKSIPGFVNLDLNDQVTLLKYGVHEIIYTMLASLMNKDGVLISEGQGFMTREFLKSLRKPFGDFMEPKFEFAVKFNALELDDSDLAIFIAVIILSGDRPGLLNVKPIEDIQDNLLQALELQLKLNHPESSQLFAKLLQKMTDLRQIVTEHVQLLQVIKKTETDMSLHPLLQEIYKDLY
In words: Inhibition of PPARgamma (unknown origin) transfected in HEK293 cells incubated for 18 hrs in presence of rosiglitazone by dual luciferase reporter assay. It is filed as cell-based.

In a further data set the target is Androgen receptor (Homo sapiens, UniProt P10275). The experiment in a line: Activation of Gal-DBD and NHRLBD fused AR (unknown origin) transfected in African green monkey CV-1 cells by luciferase reporter assay. It is filed as cell-based. (In general: Reporter assays use an easily measured gene product as a stand-in for the process of interest.)
Data set [5] concerns the target T3, Fatty acid-binding protein, liver (Homo sapiens, UniProt P07148).
T3 sequence (P07148 whole entry): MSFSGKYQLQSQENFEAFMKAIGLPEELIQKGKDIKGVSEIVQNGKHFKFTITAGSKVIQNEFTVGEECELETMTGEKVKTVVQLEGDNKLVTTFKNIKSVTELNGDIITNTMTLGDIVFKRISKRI
The experiment in a line: Displacement of 8-anilino-1-naphthalene-sulfonic acid from FABP1 (unknown origin) incubated for 3 mins by fluorescence based assay.

The nature of data set [6]: Subacute toxicity in ICR mouse assessed as changes in serum ALT level at 500 mg/kg/day, po administered for 14 days. It is filed as organism-based. To be noted: in vivo, 336 h, time 14 day.

One molecule from ChEMBL document CHEMBL5338751, “Discovery of the First-in-Class Intestinal Restricted FXR and FABP1 Dual Modulator ZLY28 for the Treatment of Nonalcoholic Fatty Liver Disease” (J Med Chem, 2023) can be followed below.

The term pEC50 denotes −log10 of the EC50, conventionally taken in molar units. A word on the Kp: it is the ratio of the level in a tissue or fluid to that in plasma or blood. One may read the pIC50 as −log10 of the IC50, conventionally taken in molar units.

pEC50, pIC50: −log10 of the molar value. Activity calls are given as the source filed them. The calls are words filed in the database; no cut-off is given here.

Chain of Vitamin D3 receptor (P11473 whole entry, the tested form may be a part): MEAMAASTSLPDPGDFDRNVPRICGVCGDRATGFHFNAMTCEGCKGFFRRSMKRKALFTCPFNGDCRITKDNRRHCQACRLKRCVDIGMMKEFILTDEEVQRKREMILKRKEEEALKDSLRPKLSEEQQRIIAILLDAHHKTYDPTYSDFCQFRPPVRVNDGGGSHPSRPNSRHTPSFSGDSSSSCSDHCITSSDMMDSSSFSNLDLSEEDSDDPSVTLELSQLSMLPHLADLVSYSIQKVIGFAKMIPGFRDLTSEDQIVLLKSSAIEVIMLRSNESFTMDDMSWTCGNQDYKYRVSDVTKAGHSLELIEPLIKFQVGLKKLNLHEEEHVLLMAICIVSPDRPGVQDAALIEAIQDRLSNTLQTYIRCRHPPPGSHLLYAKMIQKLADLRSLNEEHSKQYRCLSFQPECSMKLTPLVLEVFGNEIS
Chain of Androgen receptor (P10275 whole entry, the tested form may be a part): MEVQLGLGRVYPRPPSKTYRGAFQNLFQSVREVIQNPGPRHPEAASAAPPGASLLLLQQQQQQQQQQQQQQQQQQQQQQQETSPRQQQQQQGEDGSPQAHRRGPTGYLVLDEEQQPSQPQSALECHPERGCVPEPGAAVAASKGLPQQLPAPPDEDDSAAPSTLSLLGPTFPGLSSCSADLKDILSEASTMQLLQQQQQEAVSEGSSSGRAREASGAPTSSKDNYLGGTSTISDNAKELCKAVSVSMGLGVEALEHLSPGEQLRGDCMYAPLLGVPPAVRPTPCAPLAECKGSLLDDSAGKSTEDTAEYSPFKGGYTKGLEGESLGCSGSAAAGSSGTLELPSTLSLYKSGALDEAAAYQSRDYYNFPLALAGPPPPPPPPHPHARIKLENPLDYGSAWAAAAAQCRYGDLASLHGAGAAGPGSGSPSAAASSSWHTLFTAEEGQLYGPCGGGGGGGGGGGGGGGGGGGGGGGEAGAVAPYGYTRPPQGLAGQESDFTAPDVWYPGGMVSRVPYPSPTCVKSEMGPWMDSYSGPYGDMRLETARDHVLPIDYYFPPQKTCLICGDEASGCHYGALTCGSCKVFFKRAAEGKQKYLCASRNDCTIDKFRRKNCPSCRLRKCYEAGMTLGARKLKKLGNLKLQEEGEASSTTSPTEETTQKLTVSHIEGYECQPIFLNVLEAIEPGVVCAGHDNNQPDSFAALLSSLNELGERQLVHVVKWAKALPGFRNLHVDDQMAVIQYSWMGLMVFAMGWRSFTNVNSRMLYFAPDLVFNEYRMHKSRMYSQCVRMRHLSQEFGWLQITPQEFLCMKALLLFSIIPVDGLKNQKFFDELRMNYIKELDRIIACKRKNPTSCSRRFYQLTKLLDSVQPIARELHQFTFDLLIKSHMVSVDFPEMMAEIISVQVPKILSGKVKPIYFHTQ

In the case of `O=C(O)C1(c2cccc(-c3ccc(OCc4c(-c5c(Cl)cccc5Cl)noc4C4CC4)cc3)c2)CC1`, the result (in the data set on Mus musculus; in [1]) was Active. The pEC50 (at Vitamin D3 receptor; in data set [2]; on Androgen receptor) was below 5.00 in each case. In data set [3], the partition ratio (Kp) at 120 h turned out to be 104. In addition, the results for the pIC50 in [4] and in data set [5] were below 5.00 and 5.57, respectively. The Activity entry in data set [6] is listed as “Non-Toxic”.
